For one compound, anti-pruritic activity results are on record in patent US7012083B2, “Compounds useful in therapy” (Pfizer Inc., priority 1999, dated 2006).

The test system of the experiment is hind leg scratching behaviour induced by 5-methoxytryptamine hydrochloride. Put plainly: Inhibition of hind leg scratching behaviour induced in rats by a pruritogenic agent. It counts as in vivo, Male Wistar rats. Particulars: rat, pruritogen 5-methoxytryptamine hydrochloride 4 mg/3 mL/kg s.c.; test compound s.c. in aqueous micelle formulation; scratching score over 25 minutes. As to the method:
The compounds of the invention are evaluated for their activity as antipruritic agents by measuring their ability to inhibit the hind leg scratching behaviour induced in rats by the administration of a known pruritogenic agent. These studies are based on the procedure described by Berendsen and Broekkamp in the European Journal of Pharmacology, 1991, 194, 201. The test is performed as follows: • Male Wistar rats (approximately 150 g body weight) are challenged with a pruritogen by subcutaneous injection of 5-methoxytryptamine hydrochloride (4 mg/3 mL/kg) dissolved in physiological saline into the scruff of the neck. At this dose a constant and quantifiable hindleg scratching response lasting up to 90 minutes is obtained. • The test compound is administered to the test animals by subcutaneous injection in an aqueous micelle formulation. The test compound is prepared in the following manner. […] The compounds can be administered pre- or post-challenge or may be administered at the same time as the pruritogenic challenge. • After the pruritogen challenge has been administered, hindleg scratching is scored for each animal by recording the presence or absence of scratching during each 30 second interval as 1 or 0 scored respectively. […]

SMILES strings stand for the structures.

Consider `CCCCCCN1CC[C@@](C)(c2cccc(OC(=O)NC)c2)[C@H](C)C1` (racemic) [Example 2, (±)-3-(1-Hexyl-trans-3,4-dimethyl-4-piperidinyl)phenyl methylcarbamate], for which the anti-pruritic activity result is given as “found to display anti-pruritic activity”.
